According to paper PMC3010197 (Biochemistry, 2010):
Where “and” joins values, the source holds several entries; their conditions need not be identical. Identical values can stand only once. Like-named read-outs stand apart in the source and are kept apart here.

What was measured:
[1] = test system: Bovine glutamate dehydrogenase (GDH); settings: GDH Km for NADPH; cited from earlier work
[2] = biological target: T1, BbNic (Borrelia burgdorferi nicotinamidase) (Borreliella burgdorferi, UniProt O50718); format: biochemical
[3] = biological target: T2, Pnc1 (Saccharomyces cerevisiae nicotinamidase) (Saccharomyces cerevisiae, UniProt P53184); assay: Substrate specificity: relative rates for nicotinamide analogues; format: biochemical
T2 sequence (P53184 1-216): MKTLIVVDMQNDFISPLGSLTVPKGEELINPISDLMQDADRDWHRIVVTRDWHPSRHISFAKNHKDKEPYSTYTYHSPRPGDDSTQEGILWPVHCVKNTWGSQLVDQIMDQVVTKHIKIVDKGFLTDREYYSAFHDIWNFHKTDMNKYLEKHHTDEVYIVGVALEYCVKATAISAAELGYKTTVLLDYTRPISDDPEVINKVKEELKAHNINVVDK

[4] = biological target: T3, SpNic (Streptococcus pneumoniae nicotinamidase) (Streptococcus pneumoniae, UniProt A0A0H2UR34); format: biochemical
[5] = biological target: T4, PfNic (Plasmodium falciparum nicotinamidase) (Plasmodium falciparum, UniProt O97284); format: biochemical
[6] = biological target: S. cerevisiae nicotinamidase; settings: reported as non-competitive; cited from earlier work
[7] = biological target: T2, Pnc1 (Saccharomyces cerevisiae nicotinamidase); assay: Inhibition analysis, GDH coupled nicotinamidase assay; format: biochemical; settings: Km of nicotinamide over Ki of nicotinaldehyde
nicotinamidases = assay: Class-wide statements for all nicotinamidases studied; format: biochemical
[8] = biological target: T4, PfNic (Plasmodium falciparum nicotinamidase); assay: biochemical
[9] = biological target: T1, BbNic (Borrelia burgdorferi nicotinamidase); assay: Steady state kinetics of nicotinamide hydrolysis, HPLC assay; format: biochemical; settings: substrate nicotinamide, 100 mM phosphate pH 7.3
[10] = biological target: T2, Pnc1 (Saccharomyces cerevisiae nicotinamidase); assay: Steady state progress curve analysis, GDH coupled assay; settings: substrate nicotinamide, 100 µM nicotinamide, pH 7.3
SPNic C136A mutant = assay: Nicotinamidase catalytic rate of SpNic and mutants; format: biochemical, Streptococcus pneumoniae; settings: 200 µM NAM, 37 °C, HPLC assay
SPNic C136S mutant = assay: Nicotinamidase catalytic rate of SpNic and mutants; format: biochemical, Streptococcus pneumoniae; settings: 200 µM NAM, 37 °C, HPLC assay
[11] = biological target: T3, SpNic (Streptococcus pneumoniae nicotinamidase); assay: Steady state progress curve analysis, GDH coupled assay; format: biochemical; settings: substrate nicotinamide, 100 µM nicotinamide, pH 7.3
[12] = no reference given; cited from earlier work
Steady state analysis = substrate: NC(=O)c1cccnc1; assay: Steady state analysis; format: biochemical, Caenorhabditis elegans; settings: other: substrate nicotinamide, initial rates, pH 7.3
[13] = footnote a: GDH coupled fluorescence assay, 500 µM analogue, pH 7.3
[14] = footnote b: HPLC assay, 500 µM analogue, pH 7.3, 37 °C

With NC(=O)C1=CN([C@@H]2O[C@H](COP(=O)(O)OP(=O)(O)OC[C@H]3O[C@@H](n4cnc5c(N)ncnc54)[C@H](OP(=O)(O)O)[C@@H]3O)[C@@H](O)[C@H]2O)C=CC1 [NADPH, nicotinamide adenine dinucleotide phosphate reduced form] as the molecule, how does the Km [1] read?
The Km was 28 µM.

With Cc1cncc(C(N)=O)c1 [compound 1, 5-methylnicotinamide] as the molecule, how does the “Relative rate (nicotinamide = 1.00)” value [2, 13] read?
Its value is 0.51.

And the “Relative rate (nicotinamide = 1.00)” value [3, 13]?
The value was 0.80.

What about the “Relative rate (nicotinamide = 1.00)” value [4, 13] of the same molecule?
The value was 1.63.

What about the “Relative rate (nicotinamide = 1.00)” value [5, 13] of the same molecule?
The value was 3.30.

With COc1cncc(C(N)=O)c1 [compound 2, 5-Methoxynicotinamide] as the molecule, how does the “Relative rate (nicotinamide = 1.00)” value [2, 14] read?
The value was 2.21.

And the “Relative rate (nicotinamide = 1.00)” value [3, 14]?
Its value is 2.06.

And the “Relative rate (nicotinamide = 1.00)” value [4, 14]?
The value was 1.37.

What about the “Relative rate (nicotinamide = 1.00)” value [5, 14] of the same molecule?
Its value is 6.46.

Which “Relative rate (nicotinamide = 1.00)” value [2, 14] does the source give for NC(=O)c1cccnc1Cl [compound 3, 2-chloronicotinamide] here?
The value was 0.

And the “Relative rate (nicotinamide = 1.00)” value [3, 14]?
The value was 0.

And the “Relative rate (nicotinamide = 1.00)” value [4, 14]?
Its value is 0.

What about the “Relative rate (nicotinamide = 1.00)” value [5, 14] of the same molecule?
Its value is 0.

Which “Relative rate (nicotinamide = 1.00)” value [2, 14] does the source give for NC(=O)c1ccc(Cl)nc1 [compound 4, 6-chloronicotinamide] here?
The value was 0.

And the “Relative rate (nicotinamide = 1.00)” value [3, 14]?
The value was 0.17.

What about the “Relative rate (nicotinamide = 1.00)” value [4, 14] of the same molecule?
The value was 0.018.

And the “Relative rate (nicotinamide = 1.00)” value [5, 14]?
Its value is 0.

With Cc1ccc(C(N)=O)cn1 [compound 5, 6-methylnicotinamide] as the molecule, how does the “Relative rate (nicotinamide = 1.00)” value [2, 13] read?
Its value is 0.45.

What about the “Relative rate (nicotinamide = 1.00)” value [3, 13] of the same molecule?
Its value is 0.

And the “Relative rate (nicotinamide = 1.00)” value [4, 13]?
The value was 0.11.

And the “Relative rate (nicotinamide = 1.00)” value [5, 13]?
The value was 0.40.

Which results are given for NC(=O)c1ccc(N)nc1 [compound 6, 6-aminonicotinamide]?
Relative rate (nicotinamide = 1.00) [3, 13]: 0.20; Relative rate (nicotinamide = 1.00) [4, 13]: 0.36; Relative rate (nicotinamide = 1.00) [5, 13]: 0.45

With COc1ccncc1C(N)=O [compound 7, 4-Methoxynicotinamide] as the molecule, how does the “Relative rate (nicotinamide = 1.00)” value [2, 14] read?
The value was 0.20.

What about the “Relative rate (nicotinamide = 1.00)” value [3, 14] of the same molecule?
Its value is 0.050.

What about the “Relative rate (nicotinamide = 1.00)” value [4, 14] of the same molecule?
Its value is 0.065.

And the “Relative rate (nicotinamide = 1.00)” value [5, 14]?
The value was 0.12.

Which “Relative rate (nicotinamide = 1.00)” value [3, 14] does the source give for NC(=O)c1ccncc1 [compound 8, isonicotinamide] here?
The value was 0.

What about the “Relative rate (nicotinamide = 1.00)” value [4, 14] of the same molecule?
Its value is 0.

What about the “Relative rate (nicotinamide = 1.00)” value [5, 14] of the same molecule?
Its value is 0.

For NC(=O)c1ccnc(N)c1 [compound 9, 2-Aminoisonicotinamide], which “Relative rate (nicotinamide = 1.00)” value [3, 14] is on record?
The value was 0.

What about the “Relative rate (nicotinamide = 1.00)” value [4, 14] of the same molecule?
The value was 0.

What about the “Relative rate (nicotinamide = 1.00)” value [5, 14] of the same molecule?
The value was 0.

With NC(=S)c1cccnc1 [compound 10, Thionicotinamide] as the molecule, how does the “Relative rate (nicotinamide = 1.00)” value ([2]; no method footnote) read?
Its value is 0.

And the “Relative rate (nicotinamide = 1.00)” value ([3]; no method footnote)?
The value was 0.44.

What about the “Relative rate (nicotinamide = 1.00)” value ([4]; no method footnote) of the same molecule?
The value was 0.

And the “Relative rate (nicotinamide = 1.00)” value ([5]; no method footnote)?
Its value is 0.

For COC(=O)c1cccnc1 [compound 11, methylnicotinate], which “Relative rate (nicotinamide = 1.00)” value [3, 14] is on record?
Its value is 0.15.

And the “Relative rate (nicotinamide = 1.00)” value [4, 14]?
The value was 0.035.

What about the “Relative rate (nicotinamide = 1.00)” value [5, 14] of the same molecule?
The value was 65.0.

What about the “Relative rate (nicotinamide = 1.00)” value ([5]; footnote b: HPLC assay, 500 µM analogue, pH 7.3, 37 °C, listed as methylnicotinate) of the same molecule?
Its value is 65.

What about the “steady state rate constant of turnover” value ([5]; methylnicotinate as substrate) of the same molecule?
The value was 18 s⁻¹.

With CCOC(=O)c1cccnc1 [compound 12, ethylnicotinate] as the molecule, how does the “Relative rate (nicotinamide = 1.00)” value [3, 14] read?
Its value is 0.044.

What about the “Relative rate (nicotinamide = 1.00)” value [4, 14] of the same molecule?
Its value is 0.0086.

What about the “Relative rate (nicotinamide = 1.00)” value [5, 14] of the same molecule?
The value was 0.023.

What does the source list for O=C(Oc1ccccc1)c1cccnc1 [compound 13, phenylnicotinate]?
Relative rate (nicotinamide = 1.00) [3, 14]: 0.031; Relative rate (nicotinamide = 1.00) [4, 14]: 0.031; Relative rate (nicotinamide = 1.00) [5, 14]: 0.13

What does the source list for C[n+]1cccc(C(N)=O)c1 [compound 14, 1-Methylnicotinamide]?
Relative rate (nicotinamide = 1.00) [3, 14]: 0; Relative rate (nicotinamide = 1.00) [4, 14]: 0; Relative rate (nicotinamide = 1.00) [5, 14]: 0

Which “Relative rate (nicotinamide = 1.00)” value [3, 14] does the source give for C[n+]1ccc(C(N)=O)cc1 [compound 15, 1-methyl isonicotinamide] here?
The value was 0.

What about the “Relative rate (nicotinamide = 1.00)” value [4, 14] of the same molecule?
The value was 0.

And the “Relative rate (nicotinamide = 1.00)” value [5, 14]?
The value was 0.

What does the source list for O=Cc1cccnc1 [compound 16, nicotinaldehyde]?
Ki [6]: 68 µM; Km/Ki [7]: 7.6; factor by which Ki is smaller than the Km for nicotinamide (nicotinamidases; across all enzymes studied except yeast pnc1): 91–3450; mode of inhibition (double reciprocal plots) (nicotinamidases; versus nicotinamide, in all cases): competitive inhibition; Ki [8]: 0.034 ± 0.007 µM

For Cc1cncc(C=O)c1 [compound 19, 5-methylnicotinaldehyde], which Ki [8] is on record?
The Ki was 0.023 ± 0.005 µM.

Which Ki [8] does the source give for O=Cc1ccc(F)nc1 [compound 21, 6-Fluoro-3-pyridinecarboxaldehyde] here?
The Ki was 4.9 µM.

Which Ki [8] does the source give for N#Cc1cccnc1 [compound 23, 3-cyanopyridine] here?
Its Ki is 1000 µM.

Which Ki [8] does the source give for CC(=O)c1cccnc1 [compound 24, acetylpyridine] here?
Its Ki is 10 µM.

With NC(=O)c1cccnc1 [nicotinamide] as the molecule, how does the Km ([9]; Michaelis-Menten fit) read?
Its Km is 36.7 ± 7.5 µM.

And the kcat ([9]; confirmed by HPLC assay)?
The kcat was 0.0030 ± 0.0002 ^b s^−1.

And the kcat [10]?
Its kcat is 3.8 s^−1 and 3.8 ± 0.1 ^b s^−1.

What about the “Catalytic rate (kobs)” value (SPNic C136A mutant) of the same molecule?
The value was < 10^−6 s^−1.

And the “Catalytic rate (kobs)” value (SPNic C136S mutant)?
Its value is < 10^−6 s^−1.

And the “Relative rate (nicotinamide = 1.00)” value ([2]; no method footnote)?
The value was 1.00.

What about the “Relative rate (nicotinamide = 1.00)” value ([3]; no method footnote) of the same molecule?
Its value is 1.00.

And the kcat [11]?
The kcat was 2.1 s⁻¹.

And the “Relative rate (nicotinamide = 1.00)” value ([4]; no method footnote)?
Its value is 1.00.

And the “Relative rate (nicotinamide = 1.00)” value ([5]; no method footnote)?
Its value is 1.00.

Which pKa [12] does the source give for O=C(O)c1cccnc1 [nicotinic acid, reference compound] here?
The pKa was about 3.

What about the “effect on nicotinamidase rates (product inhibition)” value (nicotinamidases; nicotinic acid up to 500 µM, all enzymes, data not shown) of the same molecule?
The value was “do not vary”.

B1: CePNC2 (Caenorhabditis elegans nicotinamidase 2) (Caenorhabditis elegans) (protein)
chain: MGVVQNEQDIREKMKNELISLVNEIDLIPELDRLLDDFIENKTWNEDTQELFTRVVLKPFTTLRTSLLVVDFQNDFVTGSLSIKEGDAEQDPLEALPHVNNLLENLNWNMIVYTQDWHPSNHISFFEHARNPDRELAPEDKSRKLRPFDIVRFVKPVSTIQVLYPSHCIQGGWGSQLHLGLQRIDGAHYIKKGADVYVDAYSAFSDNCGIKQSELEMLLRKNDINAVIGCGLAYDICVMHTLKDASKHGFLTCIVKSGSKGLSSLKMDEANKMFQKRGVAIIDDEMAQLISRREAFPIEWIRLLVHQAQSELHGKK
Which results are given for B1?
Km (Steady state analysis): 76 ± 10 µM; kcat (Steady state analysis): 0.28 ± 0.013 s⁻¹

B2: CePNC1 (Caenorhabditis elegans nicotinamidase 1) (Caenorhabditis elegans) (protein)
chain: DNSATTNNNTILGNQSLEAIPEQLSELTGITVEESERIMESWLGNRQLDLRTSVLFDQEVLSRLRSLRVALLVVDFQNDFVDGSLKIGDGDAGQEPSSAITPLNELLQLSSWDLVVYTKDWHPHNHISFLSQAHNSDRVMDEKDENKTLGFFDSVQFLKPIKTEQVLYPDHCIQKSWGSDIHPEIYIADNAEYIMKGVDPYLDSYSAFNDNNGRSKTELEDLLRRENIDAVVIAGLAYDICVRFTCLDAVKQNFLAAVIPECSAGLTKKGIEESEMAFKKQGVAMISKDEARGITEGGFLPREWVQRIVKK
Which Km (Steady state analysis) does the source give for B2 here?
The Km was 113 ± 11 µM.

What about the kcat (Steady state analysis) of the same molecule?
The kcat was 3.1 ± 0.12 s⁻¹.
